{"source": "patent US20020137929A1", "about": "“1 - (3-heterocyclylphenyl) isothiourea, -isourea, -guanidine and -amidine herbicidal agents” (Intellectual Property Department, BASF Aktiengesellschaft, priority 1998, published 2002)", "key": {"CYPIR (Rice Flatsedge)": {"system": "CYPIR (Rice Flatsedge)", "test": "Preemergence weed control under flooded paddy conditions", "format": "in vivo, Cyperus iria", "details": "rated 3-4 weeks after treatment", "in_short": "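Flooded-pot preemergence screen with silt loam and seeds in the upper 0.5 cm. Dose about 0.0313 to 0.500 kg/ha, delivered into flood water; visual 0-9 score after 3 to 4 weeks.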"}, "[1]": {"system": "CHEAL (Lambsquarters, Common)", "test": "Postemergence herbicidal evaluation", "format": "in vivo, Chenopodium album", "in_short": "(§1)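 Each compound, dispersed in an acetone/water mix (50/50) carrying 0.5% TWEEN 20, is nozzle-sprayed at 40 psi on approximately two-week-old seedlings at about 0.0156–0.500 kg/ha. Plants are assessed 4–5 weeks afterward on a 0–9 scale relative to control; duplicate tests are averaged.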"}, "[2]": {"system": "SAGPY (Arrowhead (Pygmaea))", "test": "Preemergence weed control under flooded paddy conditions", "format": "in vivo, Sagittaria pygmaea", "details": "rated 3-4 weeks after treatment", "in_short": "(§2)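 Seeds or propagules sown in silt loam kept flooded 1.5-3 cm; compounds in 50/50 acetone/water pipetted into flood water at about 0.0313 to 0.500 kg/ha. Greenhouse; visual 0-9 rating versus untreated control 3-4 weeks after treatment.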"}, "AMBEL (Ragweed, Common)": {"system": "AMBEL (Ragweed, Common)", "test": "Postemergence herbicidal evaluation", "format": "in vivo, Ambrosia artemisifolia", "in_short": "as §1"}, "ORYSAT (Rice, Tebonnet)": {"system": "ORYSAT (Rice, Tebonnet)", "test": "Postemergence herbicidal evaluation", "format": "in vivo, Oryza sativa, (L.) Tebonnet", "in_short": "as §1"}, "GALAP (Galium)": {"system": "GALAP (Galium)", "test": "Postemergence herbicidal evaluation", "format": "in vivo, Galium aparine", "in_short": "as §1"}, "CYPSE (Flatsedge) [3]": {"system": "CYPSE (Flatsedge)", "test": "Postemergence weed control under flooded paddy conditions", "format": "in vivo, Cyperus serotinus", "details": "postemergence weeds, 3-4 weeks after treatment", "in_short": "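With weeds 3 to 5 cm tall and rice at the 1.5 to 2.5 leaf stage, containers were flooded and water held 1.5 to 3 cm above soil. Compounds in 50/50 v/v aqueous/acetone went into the flood water at about 0.0313 to 0.500 kg/ha a.i. Effects were visually rated 0–9 against controls after three to four weeks in the greenhouse.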"}, "SETVI (Foxtail, Green)": {"system": "SETVI (Foxtail, Green)", "test": "Postemergence herbicidal evaluation", "format": "in vivo, Setaria viridis", "in_short": "as §1"}, "[4]": {"system": "GLXMAW (Soybean, Williams)", "test": "Postemergence herbicidal evaluation", "format": "in vivo, Glycine max, (L.) Merr. cv Williams", "in_short": "as §1"}, "CYPSE (Flatsedge) [5]": {"system": "CYPSE (Flatsedge)", "test": "Preemergence weed control under flooded paddy conditions", "format": "in vivo, Cyperus serotinus", "details": "rated 3-4 weeks after treatment", "in_short": "as §2"}, "CASOB (Sicklepod)": {"system": "CASOB (Sicklepod)", "test": "Postemergence herbicidal evaluation", "format": "in vivo, Cassia obtusifolia", "in_short": "as §1"}, "ECHCG (Barnyardgrass)": {"system": "ECHCG (Barnyardgrass)", "test": "Postemergence herbicidal evaluation", "format": "in vivo, Echinochloa crus-galli", "in_short": "as §1"}}}
{"substance": "2-{{2-Chloro-5-[3,6-dihydro-3-methyl-2,6-dioxo-4-(trifluoromethyl)-1(2H)-pyrimidinyl]-4-fluoro-phenyl}imino}-4-oxo-3,5-thiazolidenediacetic acid, 3-ethyl (2-propynyl) ester, (2:1) mixture with di-2-propynyl ester [Compound 58]", "values": [{"measurement": "CYPIR herbicidal effect rating", "setting": "CYPIR (Rice Flatsedge); 0.0313 kg/ha", "result": 0.0}, {"measurement": "Herbicidal rating CYPIR", "setting": "CYPIR (Rice Flatsedge); 0.0625 kg/ha", "result": 0.0}, {"measurement": "Herbicidal rating CYPIR", "setting": "CYPIR (Rice Flatsedge); 0.1250 kg/ha", "result": 2.0}, {"measurement": "Herbicidal rating CYPIR", "setting": "CYPIR (Rice Flatsedge); 0.2500 kg/ha", "result": 3.0}, {"measurement": "Postemergence herbicidal rating CHEAL", "setting": "[1]; Rate 0.0158 kg/ha", "result": 9.0}, {"measurement": "Postemergence herbicidal rating CHEAL", "setting": "[1]; Rate 0.0315 kg/ha", "result": 9.0}, {"measurement": "Postemergence herbicidal rating CHEAL", "setting": "[1]; Rate 0.0630 kg/ha", "result": 9.0}, {"measurement": "SAGPY herbicidal effect rating", "setting": "[2]; 0.0313 kg/ha", "result": 0.0}, {"measurement": "Herbicidal rating SAGPY", "setting": "[2]; 0.0625 kg/ha", "result": 0.0}, {"measurement": "Herbicidal rating SAGPY", "setting": "[2]; 0.1250 kg/ha", "result": 0.0}, {"measurement": "Herbicidal rating SAGPY", "setting": "[2]; 0.2500 kg/ha", "result": 4.0}, {"measurement": "Postemergence herbicidal rating AMBEL", "setting": "AMBEL (Ragweed, Common); Rate 0.0158 kg/ha", "result": 9.0}, {"measurement": "Postemergence herbicidal rating AMBEL", "setting": "AMBEL (Ragweed, Common); Rate 0.0315 kg/ha", "result": 9.0}, {"measurement": "Postemergence herbicidal rating AMBEL", "setting": "AMBEL (Ragweed, Common); Rate 0.0630 kg/ha", "result": 9.0}, {"measurement": "Postemergence herbicidal rating ORYSAT", "setting": "ORYSAT (Rice, Tebonnet); Rate 0.0158 kg/ha", "result": 5.5}, {"measurement": "Postemergence herbicidal rating ORYSAT", "setting": "ORYSAT (Rice, Tebonnet); Rate 0.0315 kg/ha", "result": 5.5}, {"measurement": "Postemergence herbicidal rating ORYSAT", "setting": "ORYSAT (Rice, Tebonnet); Rate 0.0630 kg/ha", "result": 6.0}, {"measurement": "Postemergence herbicidal rating GALAP", "setting": "GALAP (Galium); Rate 0.0158 kg/ha", "result": 1.0}, {"measurement": "Postemergence herbicidal rating GALAP", "setting": "GALAP (Galium); Rate 0.0315 kg/ha", "result": 3.0}, {"measurement": "Postemergence herbicidal rating GALAP", "setting": "GALAP (Galium); Rate 0.0630 kg/ha", "result": 9.0}, {"measurement": "Herbicidal rating CYPSE", "setting": "CYPSE (Flatsedge) [3]; rate 0.0313 kg/ha", "result": 5.0}, {"measurement": "Herbicidal rating CYPSE", "setting": "CYPSE (Flatsedge) [3]; rate 0.0625 kg/ha", "result": 5.0}, {"measurement": "Herbicidal rating CYPSE", "setting": "CYPSE (Flatsedge) [3]; rate 0.1250 kg/ha", "result": 5.0}, {"measurement": "Herbicidal rating CYPSE", "setting": "CYPSE (Flatsedge) [3]; rate 0.2500 kg/ha", "result": 5.0}, {"measurement": "Postemergence herbicidal rating SETVI", "setting": "SETVI (Foxtail, Green); Rate 0.0158 kg/ha", "result": 9.0}, {"measurement": "Postemergence herbicidal rating SETVI", "setting": "SETVI (Foxtail, Green); Rate 0.0315 kg/ha", "result": 9.0}, {"measurement": "Postemergence herbicidal rating SETVI", "setting": "SETVI (Foxtail, Green); Rate 0.0630 kg/ha", "result": 9.0}, {"measurement": "Postemergence herbicidal rating GLXMAW", "setting": "[4]; Rate 0.0158 kg/ha", "result": 7.0}, {"measurement": "Postemergence herbicidal rating GLXMAW", "setting": "[4]; Rate 0.0315 kg/ha", "result": 7.0}, {"measurement": "Postemergence herbicidal rating GLXMAW", "setting": "[4]; Rate 0.0630 kg/ha", "result": 8.5}, {"measurement": "CYPSE herbicidal effect rating", "setting": "CYPSE (Flatsedge) [5]; 0.0313 kg/ha", "result": 5.0}, {"measurement": "Herbicidal rating CYPSE", "setting": "CYPSE (Flatsedge) [5]; 0.0625 kg/ha", "result": 5.0}, {"measurement": "Herbicidal rating CYPSE", "setting": "CYPSE (Flatsedge) [5]; 0.1250 kg/ha", "result": 5.0}, {"measurement": "Herbicidal rating CYPSE", "setting": "CYPSE (Flatsedge) [5]; 0.2500 kg/ha", "result": 5.0}, {"measurement": "Postemergence herbicidal rating CASOB", "setting": "CASOB (Sicklepod); Rate 0.0158 kg/ha", "result": 0.0}, {"measurement": "Postemergence herbicidal rating CASOB", "setting": "CASOB (Sicklepod); Rate 0.0315 kg/ha", "result": 2.0}, {"measurement": "Postemergence herbicidal rating CASOB", "setting": "CASOB (Sicklepod); Rate 0.0630 kg/ha", "result": 3.0}, {"measurement": "Postemergence herbicidal rating ECHCG", "setting": "ECHCG (Barnyardgrass); Rate 0.0158 kg/ha", "result": 7.0}, {"measurement": "Postemergence herbicidal rating ECHCG", "setting": "ECHCG (Barnyardgrass); Rate 0.0315 kg/ha", "result": 7.0}, {"measurement": "Postemergence herbicidal rating ECHCG", "setting": "ECHCG (Barnyardgrass); Rate 0.0630 kg/ha", "result": 9.0}]}
